# Patent US20060241163A1, “Optically active (S)-hydantoin derivative” (priority 2005, published 2006)
# Key:
# [1] = system: mice; assay: Minimum doses for expression of general symptoms after single oral administration; assay type: in vivo
# [2] = Pharmacokinetics in blood (unchanged compound and metabolites in plasma) in renal insufficiency model rats; assay type: in vivo; details: 100 mg/kg oral once, 23rd day from administration of adenine; compared with R-form and racemate; FIG. 1 and FIG. 2
# Protocol: After each 100 mg/kg of (S)-(−)-5-hydroxy-1-methylhydantoin, (R)-(+)-5-hydroxy-1-methylhydantoin, and racemate thereof was orally administered once to the above-mentioned model rats of renal insufficiency (on the 23rd day from administration of adenine), changes in concentration of an unchanged compound and metabolites (metabolite 1: 1-methylimidazolidintrion and metabolite 2: 5-methyloxaluric acid) in plasma were checked.
# [3] = system: rat in which renal insufficiency was induced by adenine; assay: Suppression of creatinine increase in adenine-induced renal insufficiency model rats; assay type: in vivo, Wistar-strain male rats
# From the text: Adenine was orally administered to Wistar-strain male rats of eight weeks age to prepare a renal insufficiency model. […] Further, a value of creatinine clearance (mL/kg/hr) decreased from 315.3±13.8 to 25.7±4.4 whereupon renal functions lowered to about one-tenth.
# From the 7th to the 17th days from administration of adenine, the test drug was orally administered to the rat in which renal insufficiency was induced by adenine. The creatinine levels in blood before and after the administration of the test drug were compared whereupon a suppressive action of the test drug to an increase of creatinine accompanied by the progress of renal insufficiency was checked. In a control group where no test drug was administered, an increase of creatinine to an extent of 4.37±0.76 mg/dL was noted while, in a group to which (S)-(−)-5-hydroxy-1-methylhydantoin (200 mg/kg/day) was administered, an increase of creatinine was suppressed to an extent of 2.72±0.55 mg/dL.
# [4] = system: SD-strain rats; assay: Acute toxicity test, single intravenous administration; assay type: in vivo; details: once administered intravenously, SD-strain rats 6 weeks age
# Protocol: In an acute toxicity test where (±)-5-hydroxy-1-methylhydantoin was once administered intravenously to SD-strain rats (6 weeks age), there was no dead case even when the dose was 2,000 mg/kg, and so the lethal dose of the unchanged compound was presumed to be not less than 2,000 mg/kg. In the same toxicity test however, a lethal dose of the metabolite 1 was about 150 to 300 mg/kg. […] Furthermore, it was observed that the racemate caused the decrease of general symptoms such as passivity, tactile reaction, pain sensation reaction and ipsilateral flexor reaction at a dose of 200 mg/kg.
smiles,measurement,setting,value
"CN1C(=O)NC(=O)[C@@H]1O [S-form, (S)-(−)-5-hydroxy-1-methylhydantoin]","dose causing decrease of general symptoms (passivity, tactile reaction, pain sensation reaction, ipsilateral flexor reaction)","[1]; mouse, in vivo, po",500 mg/kg
same,conversion to metabolites (metabolite 1 and metabolite 2) in plasma,[2],rarely converted to its metabolites
same,increase of creatinine in blood,"[3]; 200 mg/kg/day oral, 7th to 17th days from administration of adenine, control group 4.37±0.76 mg/dL",2.72 ± 0.55 mg/dL
same,suppressive action to renal insufficiency,"[3]; adenine renal insufficiency rats, oral, compared with racemate",suppressive action to renal insufficiency the same as the racemate
"CN1C(=O)NC(=O)[C@H]1O [R-form, (R)-(+)-5-hydroxy-1-methylhydantoin]",dose for expression of general symptoms as compared with the S-form,"[1]; mouse, in vivo, po",one-fifth
"CN1C(=O)NC(=O)C1=O [metabolite 1, 1-methylimidazolidintrion]",lethal dose,[4],150 to 300 mg/kg
"CN1C(=O)NC(=O)C1O (racemic) [racemate, (±)-5-hydroxy-1-methylhydantoin, reference compound]","dose causing decrease of general symptoms (passivity, tactile reaction, pain sensation reaction, ipsilateral flexor reaction)","[1]; general symptoms observation, single oral administration to mice",200 mg/kg
same,lethal dose,[4],"not less than 2,000 mg/kg"
